Results from ChEMBL document CHEMBL1629642, “In vitro efficacy of ST246 against smallpox and monkeypox” (Antimicrob Agents Chemother, 2009).
Active and inactive are the calls of the source.

Experiments:
[1] = test system: Variola virus; experiment: Antiviral activity against Variola virus BRZ66-39 infected in african green monkey BSC-40 cells at 0.05 to 0.5 uM by IHC staining-based comet tail reduction assay; format: functional, organism-based
[2] = test system: Monkeypox virus; experiment: Antiviral activity against Monkeypox virus V1979-I-005 infected in african green monkey BSC-40 cells at 0.005 uM uM by IHC staining-based plaque reduction assay; format: functional, organism-based
[3] = test system: Variola virus; experiment: Antiviral activity against Variola virus BSH74-sol infected in african green monkey BSC-40 cells at 0.005 uM uM by IHC staining-based plaque reduction assay; format: functional, organism-based
[4] = test system: Monkeypox virus; experiment: Antiviral activity against Monkeypox virus V81-I-179 infected in african green monkey BSC-40 cells assessed as reduction in virus-induced cytopathic effect; format: functional, organism-based; conditions: V81-I-179, BSC-40
[5] = test system: Variola virus; experiment: Antiviral activity against Variola virus SLN68-258 infected in african green monkey BSC-40 cells at 0.015 uM by IHC staining-based comet tail reduction assay; format: functional, organism-based
[6] = test system: Monkeypox virus; experiment: Antiviral activity against Monkeypox virus V81-I-179 infected in african green monkey BSC-40 cells at 0.005 uM uM by IHC staining-based plaque reduction assay; format: functional, organism-based
[7] = test system: Monkeypox virus; experiment: Antiviral activity against Monkeypox virus V1979-I-005 infected in african green monkey BSC-40 cells assessed as reduction in virus-induced cytopathic effect; format: functional, organism-based; conditions: V1979-I-005, BSC-40
[8] = test system: Cowpox virus; experiment: Antiviral activity against Cowpox virus infected in african green monkey Vero cells assessed as reduction in virus-induced cytopathic effect; format: functional, organism-based
[9] = test system: Monkeypox virus; experiment: Antiviral activity against Monkeypox virus V81-I-179 infected in african green monkey BSC-40 cells assessed as reduction in virus-induced cytopathic effect at 0.005 uM; format: functional, organism-based
[10] = test system: Monkeypox virus; experiment: Antiviral activity against Monkeypox virus V1979-I-005 infected in african green monkey BSC-40 cells assessed as reduction in virus-induced cytopathic effect at 0.015 uM; format: functional, organism-based
[11] = test system: Monkeypox virus; experiment: Antiviral activity against Monkeypox virus V1979-I-005 infected in african green monkey BSC-40 cells at 0.05 to 0.5 uM by IHC staining-based plaque reduction assay; format: functional, organism-based
[12] = test system: Variola virus; experiment: Antiviral activity against Variola virus BRZ66-39 infected in african green monkey BSC-40 cells assessed as reduction in viral plaque formation at 0.015 uM uM by IHC staining-based plaque reduction assay; format: functional
[13] = test system: Variola virus; experiment: Antiviral activity against Variola virus NEP73-175 infected in african green monkey BSC-40 cells at 0.05 to 0.5 uM by IHC staining-based comet tail reduction assay; format: functional, organism-based
[14] = test system: Monkeypox virus; experiment: Antiviral activity against Monkeypox virus V1979-I-005 infected in african green monkey BSC-40 cells at 0.015 uM by IHC staining-based comet tail reduction assay; format: functional, organism-based
[15] = test system: Variola virus; experiment: Antiviral activity against Variola virus SUD47-juba infected in african green monkey BSC-40 cells at 0.005 uM assessed as reduction in virus-induced cytopathic effect; format: functional, organism-based
[16] = test system: Variola virus; experiment: Antiviral activity against Variola virus NEP73-175 infected in african green monkey BSC-40 cells at 0.005 uM assessed as reduction in virus-induced cytopathic effect; format: functional, organism-based
[17] = test system: Variola virus; experiment: Antiviral activity against Variola virus BSH74-sol infected in african green monkey BSC-40 cells at 0.015 uM assessed as reduction in virus-induced cytopathic effect; format: functional, organism-based
[18] = test system: Variola virus; experiment: Antiviral activity against Variola virus SLN68-258 infected in african green monkey BSC-40 cells at 0.05 to 0.5 uM by IHC staining-based plaque reduction assay; format: functional, organism-based
[19] = test system: Monkeypox virus; experiment: Antiviral activity against Monkeypox virus V81-I-179 infected in african green monkey BSC-40 cells at 0.05 to 0.5 uM by IHC staining-based plaque reduction assay; format: functional, organism-based
[20] = test system: Variola virus; experiment: Antiviral activity against Variola virus SOM77-ali infected in african green monkey BSC-40 cells at 0.015 uM by IHC staining-based comet tail reduction assay; format: functional, organism-based
[21] = test system: Monkeypox virus; experiment: Antiviral activity against Monkeypox virus V77-I-823 infected in african green monkey BSC-40 cells at 0.05 to 0.5 uM by IHC staining-based plaque reduction assay; format: functional, organism-based
[22] = test system: Monkeypox virus; experiment: Antiviral activity against Monkeypox virus 2003-USA-039 infected in african green monkey BSC-40 cells assessed as reduction in viral plaque formation at 0.015 uM uM by IHC staining-based plaque reduction assay; format: functional
[23] = test system: Variola virus; experiment: Antiviral activity against Variola virus SOM77-ali infected in african green monkey BSC-40 cells assessed as reduction in viral plaque formation at 0.015 uM uM by IHC staining-based plaque reduction assay; format: functional
[24] = test system: Monkeypox virus; experiment: Antiviral activity against Monkeypox virus V78-I-3945 infected in african green monkey BSC-40 cells assessed as reduction in virus-induced cytopathic effect at 0.015 uM; format: functional, organism-based
[25] = test system: Monkeypox virus; experiment: Antiviral activity against Monkeypox virus V77-I-823 infected in african green monkey BSC-40 cells assessed as reduction in virus-induced cytopathic effect at 0.015 uM; format: functional, organism-based
[26] = test system: Variola virus; experiment: Antiviral activity against Variola virus SUD47-juba infected in african green monkey BSC-40 cells at 0.05 to 0.5 uM by IHC staining-based comet tail reduction assay; format: functional, organism-based
[27] = test system: Variola virus; experiment: Antiviral activity against Variola virus BSH74-sol infected in african green monkey BSC-40 cells at 0.05 to 5 uM assessed as reduction in virus-induced cytopathic effect; format: functional, organism-based
[28] = test system: Monkeypox virus; experiment: Antiviral activity against Monkeypox virus V81-I-179 infected in african green monkey BSC-40 cells assessed as reduction in virus-induced cytopathic effect at 0.05 to 5 uM; format: functional, organism-based
[29] = test system: Ectromelia virus; experiment: Antiviral activity against Ectromelia virus infected in african green monkey Vero cells assessed as reduction in virus-induced cytopathic effect; format: functional, cell-based
[30] = test system: Monkeypox virus; experiment: Antiviral activity against Monkeypox virus V78-I-3945 infected in african green monkey BSC-40 cells assessed as reduction in viral plaque formation at 0.015 uM uM by IHC staining-based plaque reduction assay; format: functional
[31] = test system: Monkeypox virus; experiment: Antiviral activity against Monkeypox virus V78-I-3945 infected in african green monkey BSC-40 cells assessed as reduction in virus-induced cytopathic effect; format: functional, organism-based; conditions: V78-I-3945, BSC-40
[32] = test system: Monkeypox virus; experiment: Antiviral activity against Monkeypox virus V81-I-179 infected in african green monkey BSC-40 cells at 0.005 uM by IHC staining-based comet tail reduction assay; format: functional, organism-based
[33] = test system: Monkeypox virus; experiment: Antiviral activity against Monkeypox virus V78-I-3945 infected in african green monkey BSC-40 cells assessed as reduction in virus-induced cytopathic effect at 0.005 uM; format: functional, organism-based
[34] = test system: Variola virus; experiment: Antiviral activity against Variola virus BSH74-sol infected in african green monkey BSC-40 cells assessed as reduction in viral plaque formation at 0.015 uM uM by IHC staining-based plaque reduction assay; format: functional
[35] = test system: Monkeypox virus; experiment: Antiviral activity against Monkeypox virus 2003-USA-039 infected in african green monkey BSC-40 cells at 0.05 to 0.5 uM by IHC staining-based comet tail reduction assay; format: functional, organism-based
[36] = test system: Variola virus; experiment: microbe, parasite or virus in culture; conditions: BSH74-sol, BSC-40
[37] = test system: Variola virus; experiment: Antiviral activity against Variola virus SUD47-juba infected in african green monkey BSC-40 cells at 0.015 uM by IHC staining-based comet tail reduction assay; format: functional, organism-based

O=C(NN1C(=O)[C@@H]2[C@@H]3C=C[C@@H]([C@H]4C[C@@H]34)[C@@H]2C1=O)c1ccc(C(F)(F)F)cc1 [TECOVIRIMAT]
23 nM: EC50 [31]
32 nM: EC50 [4]
28 nM: EC50 [36]
50%: inhibition (INH) [12] | inhibition (INH) [22] | inhibition (INH) [23] | inhibition (INH) [30] | inhibition (INH) [34]
39 nM: EC50 [7]
inactive: Activity [2] | Activity [3] | Activity [6] | Activity [9] | Activity [15] | Activity [16] | Activity [32] | Activity [33]
active: Activity [1] | Activity [5] | Activity [8] | Activity [10] | Activity [11] | Activity [13] | Activity [14] | Activity [17] | Activity [18] | Activity [19] | Activity [20] | Activity [21] | Activity [24] | Activity [25] | Activity [26] | Activity [27] | Activity [28] | Activity [29] | Activity [35] | Activity [37]
